One molecule from patent publication US3986862A, “Emulsifiable liquid concentrates containing 4-amino-6-t-butyl-3-(methylthio)-1,2,4-triazin-5-one and 2-chloro-N-(2,6-diethylphenyl)-N-methoxymethylacetamide” (E. I. Du Pont de Nemours and Company, priority 1974, dated 1976) can be followed below.

The format of the series is physicochemical. Here is the method: The unexpected solvent synergism between alachlor, metribuzin and chlorobenzene is illustrated in the Table below. […] When metribuzin is the only material in chlorobenzene only 4% can be held in solution at -6° C. This is equivalent to about 0.35 lbs. metrubuzin/gallon. Solutions more concentrated than that could not be stored at the commercially important warehousing conditions at or near the conventional freezing temperatures (32° F. or 0° C.). […] These concentrations represent 0.8 lbs. of metribuzin and 3.2 lbs. of alachlor per gallon.
SOLUBILITY OF METRIBUZIN AT LOW TEMPERATURES IN
LASSO* AND/OR CHLOROBENZENE

[1] abbreviates: metribuzin the only material in chlorobenzene, at -6° C.

For `CSc1nnc(C(C)(C)C)c(=O)n1N` [Metribuzin, 4-amino-6-t-butyl-3-(methylthio)-1,2,4-triazin-5-one], where the note is “4% metribuzin, 0% alachlor, solvent chlorobenzene”, the “Incipient Crystallization Temperature” value is -6 °C. In addition, under setting [1], the “amount of metribuzin that can be held in solution” value turned out to be 4% and the “amount of metribuzin that can be held in solution, equivalent” value was “about 0.35 lbs. metrubuzin/gallon”.
